Source: patent US9241497B2, “Method and apparatus for treatment of food products” (The United States of America, as represented by the …, priority 2005, dated 2016)

How the values were obtained:
Assay type in all cases: cell-based, Listeria monocytogenes
L. monocytogenes [1] = assay: Lethality studies: ACS and LAE sprayed into shrink-wrap bags, inoculated hams, 24 h at 4° C.; details: ca. 7.0 log10 CFU per ham
Description: (§1) Bacterial Strains: Using a procedure described previously (Porto, A. C. S., et al., Journal of Food Protection, 65: 308-315 (2002)), approximately equal numbers of each of the following five strains of L. monocytogenes were used as a cocktail in this study: (i) Scott A (serotype 4b, clinical isolate); (ii) H7776 (serotype 4b, frankfurter isolate); (iii) LM-101M (serotype-4b, beef and pork sausage isolate); (iv) F6854 (serotype 1/2a, turkey frankfurter isolate); and (v) MFS-2 (serotype 1/2a, environmental isolate from a pork processing plant). For each experiment isolates were passed twice in brain heart infusion (BHI; Difco Laboratories, Detroit, Mich.) broth at 37° C. so that cells would be in the stationary phase for inoculating hams. Stock cultures were maintained by storage in BHI plus 10% (wt/vol) glycerol in 1.5-ml portions in cryovials and held at −80° C.
Lethality Studies: To evaluate the lethality of acidic calcium sulfate (ACS; Safe2O-RTE 01, Mionix Corp., Naperville, Ill.) and lauramide arginine ester (LAE; Ethyl-N-dodecanoyl-L-arginate hydrochloride; CAS No. 60372-77-2; Mirenat-N, Vedeqsa, Barcelona, Spain; also known as lauric arginate), “table brown” hams (water, ground ham trims, brine, dextrose, sugar, sodium phosphate, sodium erythorbate, and sodium nitrite; ca. 3 pounds each ham) were processed and vacuum-sealed by a commercial processor (Hatfield Quality Meats, Hatfield, Pa.). The hams were boxed, transported back to the laboratory, and stored at 4° C. for up to 7 days. Each ham was aseptically removed from its original packaging, spot inoculated with 2 mL of the cocktail using a pipette to achieve a target level of ca. 7.0 log10 CFU per ham, and then transferred to a high-performance shrink-wrap bag (B2570T, Cryovac, Duncan, S.C.). Just prior to introducing the hams, the inside of each shrink-wrap bag was sprayed with 0, 2, 4, 6, or 8 mL of either a 1:1 (1 part ACS: 1 part dH2O) or 1:2 (1 part ACS:2 parts dH2O) solution of ACS or a 5% (5 parts LAE:95 parts dH2O) or 10% (10 parts LAE:90 parts dH2O) solution of LAE. The antimicrobials for these experiments were introduced via a 24-ounce plastic spray bottle (Koch Supplies, Kansas City, Mo.). Each bag was then vacuum sealed to 950 mBar using a Multivac A300/16 vacuum-packaging unit (Sepp Haggemüller K G, Wolfertschwenden, Germany), submerged in hot (88° C.) water for approximately 5 seconds to shrink the bag, and transferred to a 4° C. incubator and held for 24 h. In a single trial, three hams were analyzed for each concentration and volume of ACS and LAE tested after 24 h of refrigerated storage.
Microbiological Analyses: Surviving L. monocytogenes were enumerated using the USDA/ARS package rinse method (Luchansky J. B., et al., Journal of Food Protection, 65: 567-570 (2002)) and spread-plating 250 uL of the resulting rinse fluid or dilutions thereof onto duplicate modified Oxford agar plates (MOX; Cook, L. V., Isolation and identification of Listeria monocytogenes from red meat, poultry, egg, and environmental samples, Chapter 8, In: USDA/FSIS Microbiology Laboratory Guidebook (3rd ed., Revision 2), Washington, D.C. (1999)) using a sterile cell spreader and incubating for 48 h at 37° C. Listeria numbers were expressed as log10 CFU per ham with each package containing a single ham; the detection limit was 1.48 log10 CFU/ham. […]

L. monocytogenes [2] = assay: Shelf-life studies: outgrowth on hams during refrigerated storage up to 60 days; details: for reduction of pathogen levels relative to untreated samples: after 24 h at 4° C.; for levels of L. monocytogenes compared to untreated control hams (statistical analyses): all volumes tested
Description: as §1
Shelf-Life Studies: To evaluate the efficacy of ACS and LAE over the expected refrigerated shelf life of the product, a fresh batch of the same formulation of hams was obtained from the same commercial manufacturer as described previously. For these studies, hams were spot inoculated with 2 mL of the L. monocytogenes cocktail to achieve a target level of either 3.0 or 7.0 log10 CFU per ham. At each inoculation level one portion of the hams was transferred to shrink-wrap bags that were previously sprayed on the inside with 4, 6, or 8 mL of a 1:2 solution of ACS applied using a commercial spraying apparatus (AutoJet Spray System #45570-22-10-120V, Spraying Systems Co., Wheaton, Ill.) and commercial bagging apparatus (Taped Bag Loader #BL189, Cryovac). An otherwise similar portion of the inoculated hams was transferred to shrink-wrap bags that just prior to introduction of the hams were sprayed with 4, 6, or 8 mL of a 5% LAE solution using the commercial spraying and bagging apparatus. Control hams were also spot inoculated with either 3.0 or 7.0 log10 CFU of L. monocytogenes per ham and were transferred to shrink-wrap bags that were not sprayed with either compound. As described previously, hams were vacuum-sealed, submerged in hot (88° C.) water, and stored at 4° C. Hams were analyzed 1, 7, 14, 21, 28, 40, and, 60 days post-inoculation. For each of two trials, three hams were analyzed at each sampling point for both inoculation levels and for both chemicals tested.
(§2) Microbiological Analyses: Surviving L. monocytogenes were enumerated using the USDA/ARS package rinse method (Luchansky J. B., et al., Journal of Food Protection, 65: 567-570 (2002)) and spread-plating 250 uL of the resulting rinse fluid or dilutions thereof onto duplicate modified Oxford agar plates (MOX; Cook, L. V., Isolation and identification of Listeria monocytogenes from red meat, poultry, egg, and environmental samples, Chapter 8, In: USDA/FSIS Microbiology Laboratory Guidebook (3rd ed., Revision 2), Washington, D.C. (1999)) using a sterile cell spreader and incubating for 48 h at 37° C. Listeria numbers were expressed as log10 CFU per ham with each package containing a single ham; the detection limit was 1.48 log10 CFU/ham. Periodically, isolates were retained from randomly selected samples and confirmed as L. monocytogenes following the recommended/standard USDA/FSIS protocol (Cook, 1999).

L. monocytogenes [3] = assay: Validation studies of initial post-process lethality on hams; details: for average decrease in pathogen levels compared to untreated control hams: ca. 7.0 log10 CFU per ham, after 24 h at 4° C.
Description: as §1
Validation Studies: To validate the initial post-process lethality of ACS and LAE, a fresh batch of the same formulation of hams was obtained from the same commercial manufacturer as described previously. The hams were spot inoculated with 2 mL of the L. monocytogenes cocktail to achieve a target level of ca. 7.0 log10 CFU per ham, transferred to shrink-wrap bags (Cryovac) that were previously sprayed on the inside with 0, 2.5, 4.5, or 6.5 mL of a 1:2 solution of ACS or a 5% solution of LAE, vacuum sealed, submerged in hot (88° C.) water, and placed at 4° C. In each of three trials, three hams were analyzed at each concentration and volume of ACS and LAE tested after 24 h of refrigerated storage.
as §2

CCCCCCCCCCCC(=O)N[C@@H](CCCNC(=N)N)C(=O)OCC.Cl [LAE, Ethyl-N-dodecanoyl-L-arginate hydrochloride]
decrease in L. monocytogenes levels (L. monocytogenes [1]; 2 mL of 5% solution of LAE): ca. 3.3 log10 CFU/ham
decrease in L. monocytogenes levels (L. monocytogenes [1]; 4 mL of 5% solution of LAE): ca. 6.5 log10 CFU/ham
decrease in L. monocytogenes levels (L. monocytogenes [1]; 6 mL of 5% solution of LAE): ~5.6 log10 CFU/ham
decrease in L. monocytogenes levels (L. monocytogenes [1]; 8 mL of 5% solution of LAE): ca. 6.5 log10 CFU/ham
decrease in pathogen levels (L. monocytogenes [1]; 10% solution of LAE, all 4 application volumes (2, 4, 6, 8 mL)): ca. 6.5 log10 CFU/ham
levels of the pathogen within 24 h (L. monocytogenes [2]; 4, 6, and 8 mL of 5% solution of LAE, inoculum ca. 3.0 log10 CFU/ham, 4° C., detection limit 1.48 log10 CFU/ham): below the limit of detection
increase of L. monocytogenes levels after 60 days (L. monocytogenes [2]; 4 and 6 mL of 5% LAE solution, inoculum ca. 3.0 log10 CFU/ham, 4° C.): ca. 2.0 log10 CFU/ham
increase of pathogen levels thereafter (after 24 h) within 60 days (L. monocytogenes [2]; 4 mL of 5% solution of LAE, inoculum ca. 7.0 log10 CFU/ham, 4° C.): ca. 4.6 log10 CFU/ham
reduction of pathogen levels relative to untreated samples (L. monocytogenes [2]; 4 mL of 5% solution of LAE, inoculum ca. 7.0 log10 CFU/ham): ~5.1 log10 CFU/ham
increase of pathogen levels thereafter (after 24 h) within 60 days (L. monocytogenes [2]; 6 mL of 5% solution of LAE, inoculum ca. 7.0 log10 CFU/ham, 4° C.): ~3.0 log10 CFU/ham
reduction of pathogen levels relative to untreated samples (L. monocytogenes [2]; 6 mL of 5% solution of LAE, inoculum ca. 7.0 log10 CFU/ham): ~5.4 log10 CFU/ham
levels of L. monocytogenes after 60 days (L. monocytogenes [2]; 8 mL of 5% LAE solution, inoculum ca. 3.0 log10 CFU/ham, 4° C., detection limit 1.48 log10 CFU/ham): remained below the detection limit
increase of pathogen levels thereafter (after 24 h) within 60 days (L. monocytogenes [2]; 8 mL of 5% solution of LAE, inoculum ca. 7.0 log10 CFU/ham, 4° C.): ~2.0 log10 CFU/ham
reduction of pathogen levels relative to untreated samples (L. monocytogenes [2]; 8 mL of 5% solution of LAE, inoculum ca. 7.0 log10 CFU/ham): ~5.5 log10 CFU/ham
duration of control of further outgrowth of L. monocytogenes (L. monocytogenes [2]; initial inoculum of ca. 7.0 log10 CFU/ham, refrigerated storage): ≥ 28 days
levels of L. monocytogenes compared to untreated control hams (statistical analyses) (L. monocytogenes [2]; inoculum ca. 3.0 log10 CFU/ham, day 1 through day 40): appreciably lower
levels of L. monocytogenes compared to untreated control hams (statistical analyses) (L. monocytogenes [2]; inoculum ca. 7.0 log10 CFU/ham, day 1 through day 60): appreciably lower
average decrease in pathogen levels compared to untreated control hams (L. monocytogenes [3]; 2.5 mL of 5% solution of LAE): ca. 4.6 log10 CFU/ham
average decrease in pathogen levels compared to untreated control hams (L. monocytogenes [3]; 4.5 mL of 5% solution of LAE): ~5.9 log10 CFU/ham
reduction of levels of L. monocytogenes on the surface of hams (conclusion) (L. monocytogenes [3]; 5% solution of LAE, within 24 h at 4° C.): at least 5.0 log10 CFU/ham
average decrease in pathogen levels compared to untreated control hams (L. monocytogenes [3]; 6.5 mL of 5% solution of LAE): ~6.1 log10 CFU/ham
